Publication PMC10250618, “Synthesis, structure-activity relationships and biological evaluation of benzimidazole derived sulfonylurea analogues as a new class of antagonists of P2Y1 receptor” (Frontiers in Pharmacology, 2023)

How the values were obtained:
HEK-293 Cell Line = assay: MTT assay, HEK-293; type: cell-based; conditions: at 50 µM; triplicate
t-P2Y1 = target: T1, t-P2Y1 (Meleagris gallopavo, UniProt P49652); assay: Calcium mobilization assay, t-P2Y1 transfected 1321N1 astrocytoma cells; type: cell-based; conditions: 100 μM ADP
T1 construct: host or cells: human 1321N1 astrocytoma cells, stably transfected
T1 sequence (P49652 whole entry): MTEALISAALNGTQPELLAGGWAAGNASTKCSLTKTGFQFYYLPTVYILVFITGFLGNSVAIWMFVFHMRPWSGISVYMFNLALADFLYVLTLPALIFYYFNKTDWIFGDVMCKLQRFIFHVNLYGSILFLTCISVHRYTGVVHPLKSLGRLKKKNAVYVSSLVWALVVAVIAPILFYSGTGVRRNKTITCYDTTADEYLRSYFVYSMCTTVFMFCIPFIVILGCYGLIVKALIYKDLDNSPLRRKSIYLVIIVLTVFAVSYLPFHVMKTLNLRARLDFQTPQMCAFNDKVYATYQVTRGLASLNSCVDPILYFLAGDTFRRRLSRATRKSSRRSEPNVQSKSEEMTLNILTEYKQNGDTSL
Description: (§1) Dr. Gary A. Weisman provided human-1321N1 astrocytoma cells that had been transfected by the tP2Y1R, hP2Y2R, hP2Y4R, and rP2Y6R and untransfected 1321N1 astrocytoma cells (University of Missouri Mo., Bond Life Science Center). The DMEM Dulbecco’s Modified Eagle -Medium (Gibco) was added in flasks to cultivate the cell line. 10% of the Fetal bovine serum was also added to the media together with 500 μg/mL of Geneticin (G418) and 1% of the Pen/Strep. The cells in T-75 flask were then cultured and incubated in a CO2 incubator which was maintained at (5%) and 37°C temperature until 90% of the cells were confluent. Throughout the experiment, cells were periodically checked for the confluency and strictly watched for the microbial contamination.
(§2) The FLUOstar Galaxy (BMG LABTECH GmbH, Ortenberg, Germany) microplate reader with two injectors was used to measure the Ca^2+ fluorescence of synthetic compounds. For this assay, 1321N1 transfected cells (t-P2Y1, h-P2Y2, h-P2Y4, and r-P2Y6) were cultured in T-75 flask. When cells reached the confluency of 80%–90%, they were washed with PBS and then Trypsin was added. After trypsinization for 3 min, 20,000 cells/well were allowed to seed in a black wall and 96 well clear bottom plate which was coated with Poly-D-Lysine and allowed to incubate for 24 h in 37°C, 5% CO2 incubator. After incubation, 200 μL culture media was changed with 100 μL HBSS containing Fura-2 AM which is calcium chelating dye and allowed the plate to incubate for 45 min in dark at temp of 37°C in incubator which is maintained with carbon dioxide (5% CO2). After incubation for 45 min, synthesized molecules were added to HBSS washed cells in each well of 96 well plate and re-incubated for 30 min at 37°C. In next step, injection of the endogenous ligand such as ADP through the injector was followed by excitation and emission measurements of Fura-2 AM at 380/520 nm and 340/520. Final volume of the assay per well 200 μL. IC50 values were computed for the compounds displaying more than 50% of activity using Prism 5.0 software (Graph Pad., Inc., San Diego. California, United States) by using analysis i.e., nonlinear regression ([Kassack et al., 2002]; [Ullmann et al., 2005]).

HeLa Cell Line = assay: MTT assay, HeLa; type: cell-based; conditions: at 50 µM; triplicate
r-P2Y6 = target: T2, r-P2Y6 (Rattus norvegicus, UniProt Q63371); assay: Calcium mobilization assay, r-P2Y6 transfected 1321N1 astrocytoma cells; type: cell-based
T2 construct: host or cells: human 1321N1 astrocytoma cells, stably transfected
T2 sequence (Q63371 whole entry): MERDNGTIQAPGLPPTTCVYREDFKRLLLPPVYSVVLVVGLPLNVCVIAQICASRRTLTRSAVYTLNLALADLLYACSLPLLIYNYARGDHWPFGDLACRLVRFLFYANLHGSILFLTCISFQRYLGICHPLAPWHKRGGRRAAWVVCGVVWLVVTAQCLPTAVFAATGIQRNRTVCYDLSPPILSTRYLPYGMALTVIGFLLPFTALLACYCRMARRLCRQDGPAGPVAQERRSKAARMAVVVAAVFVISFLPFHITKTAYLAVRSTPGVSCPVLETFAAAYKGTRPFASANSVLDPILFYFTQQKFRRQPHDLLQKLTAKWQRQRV
Description: as §1, §2

H-1321N1 Cell Line = assay: MTT assay, non-transfected 1321N1 astrocytoma cells; type: cell-based, human; conditions: at 50 µM; non-transfected astrocytoma 1321N1 cells; triplicate
Description: (§3) A 96-well plate was used to plate 20,000 human 1321N1 astrocytoma cells and allowed for incubation for 24 h at temp of 37°C in CO2 (5%) incubator. Next to this, the prepared culture media was changed to media which was free from FBS, the test compounds were added and the incubation process was repeated. After incubation of 24 h, the serum free media from the wells was discarded, and 100 μL of the reagent i.e., MTT reagent was pipetted. Plate was then additionally incubated at 37°C for 4 h. Utilizing a microplate reader, absorbance was determined at 570 nm and 630 nm for calculation of cell viability (FLUOstarOmega Microplate Reader-BMG LABTECH GmbH, Ortenberg, Germany) ([Sauer et al., 2009]).

h-P2Y4 = target: T3, h-P2Y4 (Homo sapiens, UniProt P51582); assay: Calcium mobilization assay, h-P2Y4 transfected 1321N1 astrocytoma cells; type: cell-based; conditions: final conc of 100 μM; 500 μM UTP
T3 construct: host or cells: human 1321N1 astrocytoma cells, stably transfected
T3 sequence (P51582 whole entry): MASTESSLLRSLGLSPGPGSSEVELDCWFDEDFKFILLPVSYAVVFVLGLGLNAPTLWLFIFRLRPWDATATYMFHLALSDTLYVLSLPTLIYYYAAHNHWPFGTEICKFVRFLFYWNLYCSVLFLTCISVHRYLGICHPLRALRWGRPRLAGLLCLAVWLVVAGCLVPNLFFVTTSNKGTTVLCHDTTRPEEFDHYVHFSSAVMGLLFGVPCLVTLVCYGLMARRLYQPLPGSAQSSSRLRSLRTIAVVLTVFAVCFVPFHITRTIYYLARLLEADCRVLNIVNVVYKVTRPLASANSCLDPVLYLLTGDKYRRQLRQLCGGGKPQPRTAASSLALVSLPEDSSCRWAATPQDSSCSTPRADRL
Description: as §1, §2

h-P2Y2 = target: T4, h-P2Y2 (Homo sapiens, UniProt P41231); assay: Calcium mobilization assay, h-P2Y2 transfected 1321N1 astrocytoma cells; type: cell-based; conditions: 500 μM ATP
T4 construct: host or cells: human 1321N1 astrocytoma cells, stably transfected
T4 sequence (P41231 whole entry): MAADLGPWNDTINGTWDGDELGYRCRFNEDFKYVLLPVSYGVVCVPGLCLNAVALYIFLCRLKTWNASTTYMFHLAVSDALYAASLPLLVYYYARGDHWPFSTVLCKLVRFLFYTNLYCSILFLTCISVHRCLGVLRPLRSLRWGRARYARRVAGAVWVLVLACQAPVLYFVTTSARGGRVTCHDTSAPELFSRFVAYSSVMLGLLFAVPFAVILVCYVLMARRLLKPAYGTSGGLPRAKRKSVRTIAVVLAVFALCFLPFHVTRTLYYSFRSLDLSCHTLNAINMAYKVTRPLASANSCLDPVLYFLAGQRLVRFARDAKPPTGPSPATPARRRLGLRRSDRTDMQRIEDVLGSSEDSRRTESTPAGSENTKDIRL
Description: as §1, §2

P2Y1 = conditions: Figure 1, reported antagonist; cited from earlier work
hP2Y2 = tested on: hP2Y2; design: method as in Bano et al., 2021; conditions: Figure 1, reported antagonist; ref Bano et al., 2021; cited from earlier work
MTT assay, HEK-293 = type: cell-based; conditions: human, HEK-293 cells; at 50 µM; triplicate; read-out: HEK-293 Cell Line (%cytotoxicity ±SEM)
MTT assay, HeLa = type: cell-based; conditions: human, HeLa cells; at 50 µM; triplicate; read-out: HeLa Cell Line (%cytotoxicity ±SEM)
[1] = MTT assay, non-transfected 1321N1 astrocytoma cells; type: cell-based, human; conditions: human, non-transfected 1321N1 astrocytoma cells; at 50 µM; non-transfected astrocytoma 1321N1 cells; triplicate; read-out: H-1321N1 Cell Line (%cytotoxicity ±SEM)
Description: as §3

Molecule: 2-Amino-5-nitro-N-((4-nitrophenyl)sulfonyl)-1H-benzo [d]imidazole-1-carbox amide [1d]
- HEK-293 Cell Line (%cytotoxicity ±SEM) (HEK-293 Cell Line): 20.3 ± 0.6%
- % Inhibition t-P2Y1 (t-P2Y1; final conc of 100 μM): 43%
- HeLa Cell Line (%cytotoxicity ±SEM) (HeLa Cell Line): 28.3 ± 0.4%
- r-P2Y6 % Inhibition (r-P2Y6; Supplementary Table 2): 39%
- % Inhibition r-P2Y6 (r-P2Y6; final conc of 100 μM, 100 μM of UDP): 39%
- H-1321N1 Cell Line (%cytotoxicity ±SEM) (H-1321N1 Cell Line): 15.9 ± 0.3%
- % Inhibition h-P2Y4 (h-P2Y4): 48%
- % Inhibition h-P2Y2 (h-P2Y2; final conc of 100 μM): 41%

Molecule: CNc1nc(I)nc2c1ncn2C1CC(OP(=O)(O)O)C2(COP(=O)(O)O)CC12 (stereo not drawn) [MRS2500]
- Ki (P2Y1): 0.78 nM

Molecule: Cc1ccc(C(=O)Nc2ccc(S(=O)(=O)O)c3cc(S(=O)(=O)O)cc(S(=O)(=O)O)c23)cc1NC(=O)c1cccc(NC(=O)Nc2cccc(C(=O)Nc3cc(C(=O)Nc4ccc(S(=O)(=O)O)c5cc(S(=O)(=O)O)cc(S(=O)(=O)O)c45)ccc3C)c2)c1 [Suramin, reference compound]
- IC50 (hP2Y2): 48000 nM
- cytotoxicity at 24 h, 50 µM (MTT assay, HEK-293): 11.1 ± 0.2%
- IC50 (t-P2Y1; Ca2+ mobilization inhibition, transfected 1321N1 cells, read-out: IC50 ± SEM t-P2Y1): 150 ± 10 nM
- cytotoxicity at 24 h, 50 µM (MTT assay, HeLa): 37.5 ± 0.2%
- cytotoxicity at 24 h, 50 µM [1]: 12.3 ± 0.2%
- IC50 (h-P2Y2; Ca2+ mobilization inhibition, transfected 1321N1 cells, read-out: IC50 ± SEM h-P2Y2): 3310 ± 80 nM
